Reference: patent US6380134B1, “N-pyridyl herbicide compounds” (Syngenta Crop Protection, Inc., priority 1998, dated 2002)

Key:
Type in all cases: in vivo
Design in all cases: key: 1=complete damage; 9=no effect; Score figures of 1 to 4 (in particular 1 to 3) signify a good to very good herbicidal action
Setaria [1] = experiment: Herbicidal action before plant emergence (pre-emergence action); conditions: 2000 g a.i./ha sprayed immediately after sowing; evaluated after 3 weeks; nine-level key (1=complete damage, 9=no effect)
Text: (§1) Monocotyledonous and dicotyledonous test plants are sown in standard soil in plastic pots. Immediately after sowing, the test substances are sprayed on as aqueous suspensions (prepared from a 25% strength wettable powder (Example F3, b) in accordance with WO 97/34485) or as emulsions (prepared from a 25% strength emulsion concentrate (Example F1, c) in accordance with WO 97/34485), corresponding to a dosage of 2 kg of a.i./ha (500 l of water/ha). The test plants are subsequently grown in the greenhouse under optimal conditions. After a test period of 3 weeks, the experiment is evaluated using a nine-level key (1=complete damage, 9=no effect). Score figures of 1 to 4 (in particular 1 to 3) signify a good to very good herbicidal action.
(§2) Test plants: Lolium, Setaria, Sinapis, Solanum, Stellaria, Ipomea.

Solanum [2] = experiment: as above; conditions: 2000 g a.i./ha sprayed immediately after sowing; evaluated after 3 weeks; nine-level key (1=complete damage, 9=no effect)
Text: as §1, §2

Sinapis [3] = experiment: as above; conditions: 2000 g a.i./ha sprayed immediately after sowing; evaluated after 3 weeks; nine-level key (1=complete damage, 9=no effect)
Text: as §1, §2

Ipomoea [4] = experiment: as above; conditions: 2000 g a.i./ha sprayed immediately after sowing; evaluated after 3 weeks; nine-level key (1=complete damage, 9=no effect)
Text: as §1, §2

Lolium [5] = experiment: as above; conditions: 2000 g a.i./ha sprayed immediately after sowing; evaluated after 3 weeks; nine-level key (1=complete damage, 9=no effect)
Text: as §1, §2

Stellaria [6] = experiment: as above; conditions: 2000 g a.i./ha sprayed immediately after sowing; evaluated after 3 weeks; nine-level key (1=complete damage, 9=no effect)
Text: as §1, §2

Setaria [7] = experiment: Post-emergence herbicidal action; conditions: dose 2000 g a.i./ha; sprayed at 4- to 6-leaf stage; evaluated after approximately 18 days; nine-level key (1=complete damage, 9=no effect)
Experimental: (§3) Monocotyledonous and dicotyledonous test plants are grown in the greenhouse in plastic pots containing standard soil and, in the 4- to 6-leaf stage, sprayed with an aqueous suspension of the test substances of the formula I, prepared from a 25% strength wettable powder (Example F3, b) in accordance with WO 97/34485) or with an emulsion of the test substances of the formula I, prepared from a 25% strength emulsion concentrate (Example F1, c) in accordance with WO 97/34485), corresponding to a dosage of 2 kg/ a.i./ha (500 l of water/ha). The test plants are subsequently grown on in the greenhouse under optimal conditions. After a test period of approximately 18 days, the experiment is evaluated using a nine-level key (1=complete damage, 9=no effect). Score figures of 1 to 4 (in particular 1 to 3) signify a good to very good herbicidal action.
as §2

Solanum [8] = experiment: Post-emergence herbicidal action; conditions: dose 2000 g a.i./ha; sprayed at 4- to 6-leaf stage; evaluated after approximately 18 days; nine-level key (1=complete damage, 9=no effect)
Experimental: as §3, §2

Sinapis [9] = experiment: Post-emergence herbicidal action; conditions: dose 2000 g a.i./ha; sprayed at 4- to 6-leaf stage; evaluated after approximately 18 days; nine-level key (1=complete damage, 9=no effect)
Experimental: as §3, §2

Ipomoea [10] = experiment: Post-emergence herbicidal action; conditions: dose 2000 g a.i./ha; sprayed at 4- to 6-leaf stage; evaluated after approximately 18 days; nine-level key (1=complete damage, 9=no effect)
Experimental: as §3, §2

Lolium [11] = experiment: Post-emergence herbicidal action; conditions: dose 2000 g a.i./ha; sprayed at 4- to 6-leaf stage; evaluated after approximately 18 days; nine-level key (1=complete damage, 9=no effect)
Experimental: as §3, §2

Stellaria [12] = experiment: Post-emergence herbicidal action; conditions: dose 2000 g a.i./ha; sprayed at 4- to 6-leaf stage; evaluated after approximately 18 days; nine-level key (1=complete damage, 9=no effect)
Experimental: as §3, §2

COc1nc(-n2c(=O)cc(C(F)(F)F)n(C)c2=O)c(F)cc1Cl [1.016]
Pre-emergence action, score, test plant Setaria (Setaria [1]): 1
Pre-emergence action, score, test plant Solanum (Solanum [2]): 1
Pre-emergence action, score, test plant Sinapis (Sinapis [3]): 1
Pre-emergence action, score, test plant Ipomoea (Ipomoea [4]): 1
Pre-emergence action, score, test plant Lolium (Lolium [5]): 1
Pre-emergence action, score, test plant Stellaria (Stellaria [6]): 1
Post-emergence action, score, Setaria (Setaria [7]): 1
Post-emergence action, score, Solanum (Solanum [8]): 1
Post-emergence action, score, Sinapis (Sinapis [9]): 1
Post-emergence action, score, Ipomoea (Ipomoea [10]): 1
Post-emergence action, score, Lolium (Lolium [11]): 1
Post-emergence action, score, Stellaria (Stellaria [12]): 1

CCOc1nc(-n2c(=O)cc(C(F)(F)F)n(C)c2=O)c(F)cc1Cl [1.017]
Pre-emergence action, score, test plant Setaria (Setaria [1]): 1
Pre-emergence action, score, test plant Solanum (Solanum [2]): 1
Pre-emergence action, score, test plant Sinapis (Sinapis [3]): 1
Pre-emergence action, score, test plant Ipomoea (Ipomoea [4]): 1
Pre-emergence action, score, test plant Lolium (Lolium [5]): 1
Pre-emergence action, score, test plant Stellaria (Stellaria [6]): 1
Post-emergence action, score, Setaria (Setaria [7]): 1
Post-emergence action, score, Solanum (Solanum [8]): 1
Post-emergence action, score, Sinapis (Sinapis [9]): 1
Post-emergence action, score, Ipomoea (Ipomoea [10]): 1
Post-emergence action, score, Lolium (Lolium [11]): 1
Post-emergence action, score, Stellaria (Stellaria [12]): 1

C=CCOc1nc(-n2c(=O)cc(C(F)(F)F)n(C)c2=O)c(F)cc1Cl [1.020]
Pre-emergence action, score, test plant Setaria (Setaria [1]): 1
Pre-emergence action, score, test plant Solanum (Solanum [2]): 1
Pre-emergence action, score, test plant Sinapis (Sinapis [3]): 1
Pre-emergence action, score, test plant Ipomoea (Ipomoea [4]): 1
Pre-emergence action, score, test plant Lolium (Lolium [5]): 1
Pre-emergence action, score, test plant Stellaria (Stellaria [6]): 1
Post-emergence action, score, Setaria (Setaria [7]): 1
Post-emergence action, score, Solanum (Solanum [8]): 1
Post-emergence action, score, Sinapis (Sinapis [9]): 1
Post-emergence action, score, Ipomoea (Ipomoea [10]): 1
Post-emergence action, score, Lolium (Lolium [11]): 1
Post-emergence action, score, Stellaria (Stellaria [12]): 1

Cn1c(C(F)(F)F)cc(=O)n(-c2nc(OCOCc3ccccc3)c(Cl)cc2F)c1=O [1.025]
Pre-emergence action, score, test plant Setaria (Setaria [1]): 1
Pre-emergence action, score, test plant Solanum (Solanum [2]): 1
Pre-emergence action, score, test plant Sinapis (Sinapis [3]): 1
Pre-emergence action, score, test plant Ipomoea (Ipomoea [4]): 1
Pre-emergence action, score, test plant Lolium (Lolium [5]): 3
Pre-emergence action, score, test plant Stellaria (Stellaria [6]): 3
Post-emergence action, score, Setaria (Setaria [7]): 3
Post-emergence action, score, Solanum (Solanum [8]): 1
Post-emergence action, score, Sinapis (Sinapis [9]): 1
Post-emergence action, score, Ipomoea (Ipomoea [10]): 1
Post-emergence action, score, Lolium (Lolium [11]): 1
Post-emergence action, score, Stellaria (Stellaria [12]): 1

Cn1c(C(F)(F)F)cc(=O)n(-c2nc(OCc3ccccc3)c(Cl)cc2F)c1=O [1.026]
Pre-emergence action, score, test plant Setaria (Setaria [1]): 1
Pre-emergence action, score, test plant Solanum (Solanum [2]): 1
Pre-emergence action, score, test plant Sinapis (Sinapis [3]): 1
Pre-emergence action, score, test plant Ipomoea (Ipomoea [4]): 1
Pre-emergence action, score, test plant Lolium (Lolium [5]): 1
Pre-emergence action, score, test plant Stellaria (Stellaria [6]): 3
Post-emergence action, score, Setaria (Setaria [7]): 3
Post-emergence action, score, Solanum (Solanum [8]): 1
Post-emergence action, score, Sinapis (Sinapis [9]): 1
Post-emergence action, score, Ipomoea (Ipomoea [10]): 1
Post-emergence action, score, Lolium (Lolium [11]): 3
Post-emergence action, score, Stellaria (Stellaria [12]): 3

CCOC(=O)COc1nc(-n2c(=O)cc(C(F)(F)F)n(C)c2=O)c(F)cc1Cl [1.047]
Pre-emergence action, score, test plant Setaria (Setaria [1]): 1
Pre-emergence action, score, test plant Solanum (Solanum [2]): 1
Pre-emergence action, score, test plant Sinapis (Sinapis [3]): 1
Pre-emergence action, score, test plant Ipomoea (Ipomoea [4]): 1
Pre-emergence action, score, test plant Lolium (Lolium [5]): 5
Pre-emergence action, score, test plant Stellaria (Stellaria [6]): 7
Post-emergence action, score, Setaria (Setaria [7]): 1
Post-emergence action, score, Solanum (Solanum [8]): 1
Post-emergence action, score, Sinapis (Sinapis [9]): 1
Post-emergence action, score, Ipomoea (Ipomoea [10]): 1
Post-emergence action, score, Lolium (Lolium [11]): 3
Post-emergence action, score, Stellaria (Stellaria [12]): 4

COC(=O)C(C)Oc1nc(-n2c(=O)cc(C(F)(F)F)n(C)c2=O)c(F)cc1Cl (centres unmarked) [1.048]
Pre-emergence action, score, test plant Setaria (Setaria [1]): 1
Pre-emergence action, score, test plant Solanum (Solanum [2]): 1
Pre-emergence action, score, test plant Sinapis (Sinapis [3]): 1
Pre-emergence action, score, test plant Ipomoea (Ipomoea [4]): 1
Pre-emergence action, score, test plant Lolium (Lolium [5]): 1
Pre-emergence action, score, test plant Stellaria (Stellaria [6]): 1
Post-emergence action, score, Setaria (Setaria [7]): 1
Post-emergence action, score, Solanum (Solanum [8]): 1
Post-emergence action, score, Sinapis (Sinapis [9]): 1
Post-emergence action, score, Ipomoea (Ipomoea [10]): 1
Post-emergence action, score, Lolium (Lolium [11]): 1
Post-emergence action, score, Stellaria (Stellaria [12]): 1

Cn1c(C(F)(F)F)cc(=O)n(-c2nc(OCC#N)c(Cl)cc2F)c1=O [1.363]
Pre-emergence action, score, test plant Setaria (Setaria [1]): 1
Pre-emergence action, score, test plant Solanum (Solanum [2]): 1
Pre-emergence action, score, test plant Sinapis (Sinapis [3]): 2
Pre-emergence action, score, test plant Ipomoea (Ipomoea [4]): 7
Pre-emergence action, score, test plant Lolium (Lolium [5]): 3
Pre-emergence action, score, test plant Stellaria (Stellaria [6]): 1
Post-emergence action, score, Setaria (Setaria [7]): 1
Post-emergence action, score, Solanum (Solanum [8]): 1
Post-emergence action, score, Sinapis (Sinapis [9]): 1
Post-emergence action, score, Ipomoea (Ipomoea [10]): 1
Post-emergence action, score, Lolium (Lolium [11]): 1
Post-emergence action, score, Stellaria (Stellaria [12]): 1

Cn1c(C(F)(F)F)cc(=O)n(-c2nc(OCC(F)(F)F)c(Cl)cc2F)c1=O [1.365]
Pre-emergence action, score, test plant Setaria (Setaria [1]): 1
Pre-emergence action, score, test plant Solanum (Solanum [2]): 1
Pre-emergence action, score, test plant Sinapis (Sinapis [3]): 1
Pre-emergence action, score, test plant Ipomoea (Ipomoea [4]): 1
Pre-emergence action, score, test plant Lolium (Lolium [5]): 1
Pre-emergence action, score, test plant Stellaria (Stellaria [6]): 1
Post-emergence action, score, Setaria (Setaria [7]): 1
Post-emergence action, score, Solanum (Solanum [8]): 1
Post-emergence action, score, Sinapis (Sinapis [9]): 1
Post-emergence action, score, Ipomoea (Ipomoea [10]): 1
Post-emergence action, score, Lolium (Lolium [11]): 1
Post-emergence action, score, Stellaria (Stellaria [12]): 1

Cn1c(C(F)(F)F)cc(=O)n(-c2nc(OCC(N)=O)c(Cl)cc2F)c1=O [1.366]
Pre-emergence action, score, test plant Setaria (Setaria [1]): 1
Pre-emergence action, score, test plant Solanum (Solanum [2]): 1
Pre-emergence action, score, test plant Sinapis (Sinapis [3]): 1
Pre-emergence action, score, test plant Ipomoea (Ipomoea [4]): 1
Pre-emergence action, score, test plant Lolium (Lolium [5]): 3
Pre-emergence action, score, test plant Stellaria (Stellaria [6]): 3
Post-emergence action, score, Setaria (Setaria [7]): 1
Post-emergence action, score, Solanum (Solanum [8]): 1
Post-emergence action, score, Sinapis (Sinapis [9]): 1
Post-emergence action, score, Ipomoea (Ipomoea [10]): 1
Post-emergence action, score, Lolium (Lolium [11]): 1
Post-emergence action, score, Stellaria (Stellaria [12]): 1

CCOc1cc(F)c(-n2c(=O)cc(C(F)(F)F)n(C)c2=O)nc1Cl [500.004]
Post-emergence action, score, Solanum (Solanum [8]): 1
Post-emergence action, score, Sinapis (Sinapis [9]): 2
Post-emergence action, score, Ipomoea (Ipomoea [10]): 3

C=CCOc1cc(F)c(-n2c(=O)cc(C(F)(F)F)n(C)c2=O)nc1Cl [500.007]
Pre-emergence action, score, test plant Setaria (Setaria [1]): 4
Pre-emergence action, score, test plant Solanum (Solanum [2]): 1

COC(=O)C(C)Oc1cc(F)c(-n2c(=O)cc(C(F)(F)F)n(C)c2=O)nc1Cl (centres unmarked) [500.029]
Pre-emergence action, score, test plant Setaria (Setaria [1]): 4
Pre-emergence action, score, test plant Solanum (Solanum [2]): 1
Post-emergence action, score, Solanum (Solanum [8]): 1
Post-emergence action, score, Sinapis (Sinapis [9]): 1
Post-emergence action, score, Ipomoea (Ipomoea [10]): 1

CSC(=O)COc1cc(F)c(-n2c(=O)cc(C(F)(F)F)n(C)c2=O)nc1Cl [500.033]
Pre-emergence action, score, test plant Setaria (Setaria [1]): 2
Pre-emergence action, score, test plant Solanum (Solanum [2]): 1
Post-emergence action, score, Solanum (Solanum [8]): 1
Post-emergence action, score, Sinapis (Sinapis [9]): 1
Post-emergence action, score, Ipomoea (Ipomoea [10]): 1

COC(=O)C(Oc1cc(Cl)c(-n2c(=O)cc(C(F)(F)F)n(C)c2=O)nc1Cl)c1ccccc1 (centres unmarked) [500.144]
Pre-emergence action, score, test plant Setaria (Setaria [1]): 2
Pre-emergence action, score, test plant Solanum (Solanum [2]): 1
